Results as given in US9422240B2, “Partially saturated nitrogen-containing heterocyclic compound” (TAISHO PHARMACEUTICAL CO., LTD, priority 2012, dated 2016).

What was measured:
human PHD2 [1] = biological target: T1, human PHD2 (Homo sapiens (Human), UniProt Q9GZT9); assay: Test 2: human PHD2 inhibitory activity, fluorescence polarization assay of HIF-1α peptide proline hydroxylation; format: biochemical; conditions: test compound's concentration 1 μM; Test 2, fluorescence polarization assay; read-out: Percent inhibition (% at 1 μM)
Method in brief: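 Enzyme from lysate of cells expressing human PHD2 (NM_022051), 40 ng/well, added to compound and 19-residue HIF-1α peptide substrate; 20 min at 30° C., EDTA quench. Prolyl hydroxylation detected by HIF-OH antibody binding via fluorescence polarization; inhibition relative to compound-free wells.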

human PHD2 [2] = biological target: T1, human PHD2; assay: Test 1: human PHD2 inhibitory activity, [14C]-2-oxoglutarate to [14C]-succinic acid radiometric assay with HIF-1α peptide; format: biochemical; conditions: test compound's concentration 1 μM; Test 1, [14C]-2-oxoglutarate radiometric assay; read-out: Percent inhibition (% at 1 μM)
Experimental: (1) Expression and Preparation of Human PHD2
Human PHD2 was expressed in insect cells (HighFive cells). A registered sequence of human PHD2 (NM_022051) was introduced into the pFastBacl vector (Invitrogen), and the sequence was verified. The vector was introduced into Sf9 insect cells (Invitrogen) to acquire human PHD2 baculovirus. HighFive insect cells (Invitrogen) were infected with this recombinant virus and cultured at 27° C. for 72 hours; thereafter, a cell lysis solution containing various protease inhibitors was added and the cells were disrupted to form a suspension. The suspension of disrupted cells was centrifuged at 4° C. and 100,000×g for 30 minutes and the supernatant was recovered as a cell lysate.
(2) Measurement of Human PHD2 Inhibitory Activity
The activity of human PHD2 enzyme was measured with a substrate which is a 19-residue partial peptide based on the sequence of HIF-1α. Specifically, the conversion of 2-oxoglutarate to succinic acid which would occur simultaneously with the hydroxylation of a proline residue in the peptide with the PHD2 enzyme was utilized. To be more specific, [^14C]-2-oxogiutarate was added to the reaction system to initiate an enzymatic reaction and the [^14C]-2-oxoglutarate remaining after the reaction was bound to 2,4-dinitrophenylhydrazine (DNPH), with the resulting precipitate being removed by passage through a filter. Subsequently, radiation counting was conducted on the resulting [^14C]-succinic acid.
A test compound, HIF-1αpeptide and [^14C]-2-oxoglutarate were preliminarily added onto 96-well plates and reaction was initiated by adding a human PHD2 enzyme solution (4 μg/well). After 15-min incubation at 37° C., a DNPH-containing quench solution was added and the mixture was allowed to stand at room temperature for 30 minutes. Thereafter, an excess of non-radiolabelled 2-oxoglutarate was added and the mixture was allowed to stand at room temperature for 60 minutes. The resulting precipitate was removed by passage through a filter and the radiation count on the [^14C]-succinic acid was quantified (with MicroBeta). Radiation counting was conducted for each well and the human PHD2 inhibitory activity of each test compound was calculated on the basis of the values for the substrate-free group and the test compound-free group.

T1 sequence (Q9GZT9 whole entry): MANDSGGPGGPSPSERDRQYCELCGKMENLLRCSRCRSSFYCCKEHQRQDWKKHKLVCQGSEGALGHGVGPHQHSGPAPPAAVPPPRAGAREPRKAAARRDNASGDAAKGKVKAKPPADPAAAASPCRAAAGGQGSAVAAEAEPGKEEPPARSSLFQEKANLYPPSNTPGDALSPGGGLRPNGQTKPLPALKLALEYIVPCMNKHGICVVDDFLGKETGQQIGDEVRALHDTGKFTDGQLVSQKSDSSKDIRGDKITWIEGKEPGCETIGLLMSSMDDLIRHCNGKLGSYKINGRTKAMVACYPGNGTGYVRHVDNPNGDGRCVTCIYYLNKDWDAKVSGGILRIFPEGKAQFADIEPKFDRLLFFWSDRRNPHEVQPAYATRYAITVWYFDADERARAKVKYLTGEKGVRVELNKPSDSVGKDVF

Row | inhibition at 1 µM (human PHD2 [1]) [%] | inhibition at 1 µM (human PHD2 [2]) [%] | SMILES
1 | 67 | 42 | Cc1ccc(CN2C(=O)C(C(=O)NCC(=O)O)=C(O)CC23CCCCC3)cc1 [Ex. 1-84]
2 | 65 | 61 | CC1(C)CC(O)=C(C(=O)NCC(=O)O)C(=O)N1Cc1ccc(C(F)(F)F)cc1 [Ex. 1-85]
3 | 71 | 48 | Cc1ccc(CN2CC3(CCCCC3)C(O)=C(C(=O)NCC(=O)O)C2=O)cc1 [Ex. 1-86]
4 | 86 | 46 | CC(C)(C)c1ccc(-c2ccc(CN3C(=O)C(C(=O)NCC(=O)O)=C(O)CC34CCOCC4)cc2)cc1 [Ex. 1-87]
5 | 55 | 44 | Cc1ccc(CN2C(=O)C(C(=O)NCC(=O)O)=C(O)CC2(C)C)cc1 [Ex. 1-88]
6 | 72 | 69 | Cc1ccc(CN2CC3(CCOCC3)C(O)=C(C(=O)NCC(=O)O)C2=O)cc1 [Ex. 1-89]
7 | 63 | 58 | Cc1ccc(CN2CC3(CCC3)C(O)=C(C(=O)NCC(=O)O)C2=O)cc1 [Ex. 1-90]
8 | 94 | 85 | O=C(O)CNC(=O)C1=C(O)C2(CCCCC2)CN(Cc2cnc(-c3ccccc3)s2)C1=O [Ex. 1-91]
9 | 66 | 69 | Cc1ccc(CN2CC(C)C(O)=C(C(=O)NCC(=O)O)C2=O)cc1 (centres unmarked) [Ex. 1-92]
10 | 81 | 80 | CC1CN(Cc2ccc(-c3ccccn3)cc2)C(=O)C(C(=O)NCC(=O)O)=C1O (centres unmarked) [Ex. 1-93]
11 | 92 | 84 | CC1CC(O)=C(C(=O)NCC(=O)O)C(=O)N1Cc1cnc(-c2ccccc2)s1 (centres unmarked) [Ex. 1-94]
12 | 91 | 85 | O=C(O)CNC(=O)C1=C(O)C2(CCC2)CN(Cc2cnc(-c3ccccc3)s2)C1=O [Ex. 1-95]
13 | 86 | 82 | CC1(C)CC(O)=C(C(=O)NCC(=O)O)C(=O)N1Cc1cnc(-c2ccccc2)s1 [Ex. 1-96]
14 | 91 | 89 | O=C(O)CNC(=O)C1=C(O)C2(CCOCC2)CN(Cc2cnc(-c3ccccc3)s2)C1=O [Ex. 1-97]
15 | 88 | 88 | O=C(O)CNC(=O)C1=C(O)CC2(CCOCC2)N(Cc2cnc(-c3ccccc3)s2)C1=O [Ex. 1-98]
16 | 92 | 71 | O=C(O)CNC(=O)C1=C(O)CC2(CCOCC2)N(CC2CCC(c3ccccc3)CC2)C1=O (centres unmarked) [Ex. 1-99]
17 | 84 | 64 | CC1CC(O)=C(C(=O)NCC(=O)O)C(=O)N1Cc1ccc(-c2ccc(C(F)(F)F)cc2)cc1 (centres unmarked) [Ex. 1-100]
18 | 86 | 60 | O=C(O)CNC(=O)C1=C(O)C2(CCCCC2)CN(Cc2ccc(-c3ccccn3)cc2)C1=O [Ex. 1-101]
19 | 83 | 67 | O=C(O)CNC(=O)C1=C(O)C2(CCC2)CN(Cc2ccc(-c3ccccn3)cc2)C1=O [Ex. 1-102]
20 | 82 | 76 | CC1CN(Cc2ccc(C(F)(F)F)cc2)C(=O)C(C(=O)NCC(=O)O)=C1O (centres unmarked) [Ex. 1-103]
21 | 94 | 87 | CC1CN(Cc2cnc(-c3ccccc3)s2)C(=O)C(C(=O)NCC(=O)O)=C1O (centres unmarked) [Ex. 1-104]
22 | 83 | 78 | O=C(O)CNC(=O)C1=C(O)CC2(CCOCC2)N(Cc2ccc(-c3ccccn3)cc2)C1=O [Ex. 1-105]
23 | 72 | 66 | O=C(O)CNC(=O)C1=C(O)CC2(CCOCC2)N(Cc2ccc(C(F)(F)F)cc2)C1=O [Ex. 1-106]
24 | 90 | 67 | CC1CN(CC2CCC(c3ccccc3)CC2)C(=O)C(C(=O)NCC(=O)O)=C1O (centres unmarked) [Ex. 1-107]
25 | 87 | 60 | CC1CN(Cc2ccc(-c3ccc(C(F)(F)F)cc3)cc2)C(=O)C(C(=O)NCC(=O)O)=C1O (centres unmarked) [Ex. 1-108]
26 | 77 | 70 | CC1(C)CC(O)=C(C(=O)NCC(=O)O)C(=O)N1Cc1ccc(-c2ccccn2)cc1 [Ex. 1-109]

Row | inhibition at 1 µM (human PHD2 [1]) [%] | inhibition at 1 µM (human PHD2 [2]) [%] | SMILES
27 | 84 | 82 | O=C(O)CNC(=O)C1=C(O)C2(CCOCC2)CN(Cc2ccc(-c3ccccn3)cc2)C1=O [Ex. 1-110]
28 | 80 | 68 | O=C(O)CNC(=O)C1=C(O)CC2(CCCCC2)N(Cc2ccc(-c3ccccn3)cc2)C1=O [Ex. 1-111]
29 | 90 | 68 | O=C(O)CNC(=O)C1=C(O)CC2(CCCCC2)N(Cc2cnc(-c3ccccc3)s2)C1=O [Ex. 1-112]
30 | 84 | 79 | O=C(O)CNC(=O)C1=C(O)CCN(Cc2ccc(C(F)(F)F)c(F)c2)C1=O [Ex. 1-113]
31 | 83 | 36 | O=C(O)CNC(=O)C1=C(O)C2(CCC2)CN(CC2CCC(c3ccccc3)CC2)C1=O (centres unmarked) [Ex. 1-114]
32 | 83 | 49 | CC1(C)CC(O)=C(C(=O)NCC(=O)O)C(=O)N1CC1CCC(c2ccccc2)CC1 (centres unmarked) [Ex. 1-115]
33 | 92 | 83 | O=C(O)CNC(=O)C1=C(O)C2(CCOCC2)CN(CC2CCC(c3ccccc3)CC2)C1=O (centres unmarked) [Ex. 1-117]
34 | 87 | 77 | CC1(C)CC(O)=C(C(=O)NCC(=O)O)C(=O)N1Cc1ccc(-c2ccc(C(F)(F)F)cc2)cc1 [Ex. 1-118]
35 | 84 | 85 | O=C(O)CNC(=O)C1=C(O)C2(CCOCC2)CN(Cc2ccc(-c3ccc(C(F)(F)F)cc3)cc2)C1=O [Ex. 1-119]
36 | 82 | 69 | O=C(O)CNC(=O)C1=C(O)CCN(Cc2ccc(C(F)(F)F)c(C(F)(F)F)c2)C1=O [Ex. 1-120]
37 | 71 | 66 | Cc1ccc(CN2C(=O)C(C(=O)NCC(=O)O)=C(O)CC23CCC3)cc1 [Ex. 1-121]
38 | 76 | 65 | O=C(O)CNC(=O)C1=C(O)CC2(CCC2)N(Cc2ccc(C(F)(F)F)cc2)C1=O [Ex. 1-122]
39 | 93 | 90 | O=C(O)CNC(=O)C1=C(O)CC2(COC2)N(Cc2cnc(-c3ccccc3)s2)C1=O [Ex. 1-123]
40 | 79 | 72 | O=C(O)CNC(=O)C1=C(O)CC2(COC2)N(Cc2ccc(C(F)(F)F)cc2)C1=O [Ex. 1-124]
41 | 97 | 98 | O=C(O)CNC(=O)C1=C(O)CCN(Cc2ccc(-c3ccccc3)c(F)c2)C1=O [Ex. 1-125]
42 | 98 | 97 | O=C(O)CNC(=O)C1=C(O)CCN(Cc2ccc(-c3ccc(F)cc3)cc2F)C1=O [Ex. 1-126]
43 | 95 | 92 | O=C(O)CNC(=O)C1=C(O)CCN(Cc2ccc(-c3ccccc3)cc2F)C1=O [Ex. 1-127]
44 | 84 | 88 | O=C(O)CNC(=O)C1=C(O)CCN(Cc2ccc(C(F)(F)F)c(Cl)c2)C1=O [Ex. 1-128]
45 | 80 | 71 | Cc1ccc(CN2CCC(O)=C(C(=O)NCC(=O)O)C2=O)cc1C(F)(F)F [Ex. 1-129]
46 | 90 | 89 | O=C(O)CNC(=O)C1=C(O)CC2(CCC2)N(Cc2ccc(-c3ccccn3)cc2)C1=O [Ex. 1-130]
47 | 96 | 93 | O=C(O)CNC(=O)C1=C(O)CC2(CCC2)N(Cc2cnc(-c3ccccc3)s2)C1=O [Ex. 1-131]
48 | 94 | 103 | O=C(O)CNC(=O)C1=C(O)CC2(COC2)N(CC2CCC(c3ccccc3)CC2)C1=O (centres unmarked) [Ex. 1-132]
49 | 97 | 104 | O=C(O)CNC(=O)C1=C(O)CC2(COC2)N(Cc2ccc(-c3ccc(C(F)(F)F)cc3)cc2)C1=O [Ex. 1-133]
50 | 85 | 86 | O=C(O)CNC(=O)C1=C(O)CCN(Cc2ccc(C(F)(F)F)c(F)c2F)C1=O [Ex. 1-134]
51 | 78 | 78 | O=C(O)CNC(=O)C1=C(O)CCN(Cc2c(F)cc(C(F)(F)F)cc2F)C1=O [Ex. 1-135]
52 | 88 | 91 | O=C(O)CNC(=O)C1=C(O)CCN(Cc2ccc(OC(F)(F)C(F)F)cc2)C1=O [Ex. 1-136]
